Experimental data reported in publication PMC12040169 (PLOS Biology, 2025).

experiment: in vitro; details: human, hela cells, % viability

SMILES | viability at 28.5 h, 10 µM [%]
COC(=O)CCc1ccc(S(=O)(=O)N2CCCN(Cc3ccc(Cl)c(C(F)(F)F)c3)CC2)cc1 [CBK062995] | 102
COC(=O)CCc1ccc(S(=O)(=O)N2CCCN(Cc3cc(F)c(F)c(F)c3)CC2)cc1 [CBK062998] | 103
CC(C)CN1CCCN(S(=O)(=O)c2ccc(-n3cnc(Cl)c3Cl)cc2)CC1 [CBK063017] | 88.5
Cc1nc(CN2CCCN(S(=O)(=O)c3ccc(C(=O)c4ccccc4)cc3)CC2)c[nH]1 [CBK063029] | 113
O=S(=O)(c1ccc(C(F)(F)F)cc1Cl)N1CCCN(Cc2cccc3c2OCO3)CC1 [CBK063067] | 98.6
CC(=O)c1ccc(CN2CCN(S(=O)(=O)c3ccc(C(F)(F)F)cc3Cl)CC2)cc1 [CBK063072] | 96
O=S(=O)(c1ccc(C(F)(F)F)cc1Cl)N1CCN(Cc2ccc3cccc(O)c3n2)CC1 [CBK063073] | 94.1
Cc1cc(CN2CCN(S(=O)(=O)c3ccc(C(F)(F)F)cc3Cl)CC2)cc(C)c1O [CBK063074] | 103
O=S(=O)(c1ccc(C(F)(F)F)cc1Cl)N1CCN(Cc2cccc3cccnc23)CC1 [CBK063075] | 110
COC(=O)c1cc(CN2CCCN(S(=O)(=O)c3ccc(-n4cnc(Cl)c4Cl)cc3)CC2)cn1C [CBK063080] | 85.2
COC(=O)CCc1ccc(S(=O)(=O)N2CCCN(Cc3ccc(C)o3)CC2)cc1 [CBK063081] | 99.8
COC(=O)CCc1ccc(S(=O)(=O)N2CCCN(Cc3c[nH]c(=O)[nH]c3=O)CC2)cc1 [CBK063082] | 113
Cc1nc[nH]c1CN1CCCN(S(=O)(=O)c2ccc(-n3cnc(Cl)c3Cl)cc2)CC1 [CBK063087] | 91.7
O=S(=O)(c1ccc(-n2cnc(Cl)c2Cl)cc1)N1CCCN(Cc2ccc3cccc(O)c3n2)CC1 [CBK063088] | 92
COC(=O)c1cc(CN2CCCN(S(=O)(=O)c3ccc(C(F)(F)F)cc3Cl)CC2)cn1C [CBK063097] | 99.4
N#Cc1cc(CN2CCCN(S(=O)(=O)c3ccc(C(F)(F)F)cc3Cl)CC2)ccc1F [CBK063100] | 98.8
Cc1cc(CN2CCCN(S(=O)(=O)c3ccc(C(F)(F)F)cc3Cl)CC2)cc(C)c1O [CBK063102] | 91.2
O=S(=O)(c1ccc(-c2ccccc2)cc1)N1CCCN(Cc2cccc(F)c2F)CC1 [CBK063111] | 113
CC(=O)Oc1cccc(CN2CCCN(S(=O)(=O)c3ccc(-c4ccccc4)cc3)CC2)c1 [CBK063113] | 94.1
COC(=O)CCc1ccc(S(=O)(=O)N2CCCN(Cc3ccc4c(c3)OCO4)CC2)cc1 [CBK063130] | 106
CCCC(=O)c1ccc(S(=O)(=O)N2CCN(Cc3cccc(F)c3C)CC2)cc1 [CBK063152] | 88.4

SMILES | viability at 28.5 h, 10 µM [%]
CCCC(=O)c1ccc(S(=O)(=O)N2CCN(Cc3ccc4cccc(O)c4n3)CC2)cc1 [CBK063158] | 102
CCCC(=O)c1ccc(S(=O)(=O)N2CCN(Cc3c[nH]nc3-c3cccs3)CC2)cc1 [CBK063160] | 79.6
COc1ccc([C@@]23CC[C@@H](NC(=O)Nc4cccc(C(F)(F)F)c4F)C[C@@H]2CN(C)C3)cc1OC [CBK063195A] | 98.5
O=C(Nc1ccc2cc(Br)cnc2n1)c1ccccc1[N+](=O)[O-] [CBK063253] | 96.8
Cc1ccc(NC(=O)Nc2ccc3cc(Br)cnc3n2)c(C)c1 [CBK063269] | 85.8
CCOC(=O)NC(=O)Nc1cc2ccccc2c(Br)n1 [CBK063282] | 88.1
O=C(Nc1cc2cccnc2c(Br)n1)Nc1ccc(F)cc1C(F)(F)F [CBK063287] | 88.8
CCCCOc1ccc(NC(=O)Nc2cc3cccnc3c(Br)n2)cc1 [CBK063291] | 78.1
Cc1ccccc1C(=O)NCC(=O)Nc1cc2ccccc2c(Br)n1 [CBK063298] | 89.4
CC(=O)OCC(=O)Nc1ccc2cc(Br)cnc2n1 [CBK063311] | 91.1
Cc1ccccc1C(=O)NCC(=O)Nc1ccc2cc(Br)cnc2n1 [CBK063312] | 96.5
O=C(Nc1ccc2cc(Br)cnc2n1)C(F)(F)F [CBK063313] | 90
O=C1N=C(N2CCCCCC2)SC1CC(=O)N1CCCc2ccccc21 (stereo not shown) [CBK063336] | 93.4
O=C1N=C(NC2CCCCCC2)SC1CC(=O)N1CCCC1 (stereo not shown) [CBK063342] | 95.3
COc1ccccc1-c1cnc(N)c(NCc2ccccc2)n1 [CBK063357] | 94.3
CC(=O)Nc1cccc(-c2cnc(N)c(N3CCN(C)CC3)n2)c1 [CBK063361] | 107
Nc1ncc(-c2cccc(O)c2)nc1N1CCOCC1 [CBK063376] | 100
CN(C)CCNC(=O)c1cccc(-c2cnc(N)c(N3CCN(C)CC3)n2)c1 [CBK063393] | 95
Nc1ncc(-c2ccccc2CO)nc1N1CCN(CCO)CC1 [CBK063404] | 100
Nc1ncc(-c2cccc(O)c2)nc1N1CCC(C(=O)O)CC1 [CBK063405] | 85.3
Nc1ncc(-c2cccc(CO)c2)nc1N1CCOCC1 [CBK063406] | 97.6

SMILES | viability at 28.5 h, 10 µM [%]
Nc1ncc(-c2cccc(-c3ccccc3)c2)nc1N1CCN(CCO)CC1 [CBK063410] | 113
Nc1ncc(-c2cccc(C(=O)O)c2)nc1N1CCOCC1 [CBK063415] | 101
CN1CCN(c2nc(-c3ccc(-c4ccccc4)cc3)cnc2N)CC1 [CBK063421] | 106
Nc1ncc(-c2cncnc2)nc1N1CCOCC1 [CBK063422] | 93.7
CN1CCN(c2nc(-c3ccco3)cnc2N)CC1 [CBK063449] | 109
Nc1ncc(-c2ccccc2)nc1NCc1cccnc1 [CBK063452] | 116
NC(=O)c1cccc(-c2cnc(N)c(N3CCC[C@@H]3CO)n2)c1 [CBK063458] | 99.5
CN1CCN(c2nc(-c3cccc4ncccc34)cnc2N)CC1 [CBK063465] | 107
Nc1ncc(-c2cccc3cccnc23)nc1N1CCC[C@@H]1CO [CBK063470] | 108
COc1cc(-c2cnc(N)c(N3CCC[C@@H]3CO)n2)cc(OC)c1OC [CBK063478] | 101
CN(C)CCN1CCN(c2nc(-c3cccc4ccccc34)cnc2N)CC1 [CBK063479] | 94.7
Nc1ncc(-c2ccc3c(c2)OCO3)nc1NCc1ccncc1 [CBK063483] | 106
CN(C)CCN1CCN(c2nc(-c3ccc4c(c3)OCO4)cnc2N)CC1 [CBK063495] | 93.9
COc1ccc(-c2cnc(N)c(N3CCC[C@@H]3CO)n2)c(OC)c1OC [CBK063505] | 98.5
Nc1ncc(-c2cccc3ccccc23)nc1N1CCC[C@@H]1CO [CBK063517] | 94.1
COc1cc(-c2cnc(N)c(NCC(C)(C)CO)n2)cc(OC)c1OC [CBK063523] | 92.2
COc1ccc(-c2cnc(N)c(NCc3cccnc3)n2)c(OC)c1OC [CBK063540] | 99
COc1ccc(-c2cnc(N)c(NCC(C)(C)CO)n2)c(OC)c1OC [CBK063542] | 103
Nc1ncc(-c2ccc(F)c(Cl)c2)nc1NCCCO [CBK063555] | 101
